According to patent publication US8592422B2, “Bicyclic triazole and pyrazole lactams as allosteric modulators of mGluR5 receptors” (Vanderbilt University, priority 2010, dated 2013):
Where two headings read alike, the source gives them in different places.

Target: T1, human mGluR5a receptor (Homo sapiens, UniProt P41594)
T1 construct: cDNA subcloned into pcDNA3.1(-)
Assay: Cell-based functional Ca2+ mobilization assay (FDSS), potentiation of glutamate EC20 response
Settings: for pEC50 / EC50: HEK cells transfected with human mGluR5 (H10H or H12H), in presence of EC20 glutamate; for Emax (%) / Emax: maximum % effect in concentration-response curve, as percent of response to maximally effective glutamate
Procedure, shortened: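 HEK293A cells stably expressing human mGluR5a (H10H or H12H clones), plated overnight in glutamate-glutamine-free medium, loaded with Ca2+-sensitive dye (e.g. Fluo-4) and read on FDSS.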

T1 sequence (P41594 21-1180 isoform P41594-2 limits assumed): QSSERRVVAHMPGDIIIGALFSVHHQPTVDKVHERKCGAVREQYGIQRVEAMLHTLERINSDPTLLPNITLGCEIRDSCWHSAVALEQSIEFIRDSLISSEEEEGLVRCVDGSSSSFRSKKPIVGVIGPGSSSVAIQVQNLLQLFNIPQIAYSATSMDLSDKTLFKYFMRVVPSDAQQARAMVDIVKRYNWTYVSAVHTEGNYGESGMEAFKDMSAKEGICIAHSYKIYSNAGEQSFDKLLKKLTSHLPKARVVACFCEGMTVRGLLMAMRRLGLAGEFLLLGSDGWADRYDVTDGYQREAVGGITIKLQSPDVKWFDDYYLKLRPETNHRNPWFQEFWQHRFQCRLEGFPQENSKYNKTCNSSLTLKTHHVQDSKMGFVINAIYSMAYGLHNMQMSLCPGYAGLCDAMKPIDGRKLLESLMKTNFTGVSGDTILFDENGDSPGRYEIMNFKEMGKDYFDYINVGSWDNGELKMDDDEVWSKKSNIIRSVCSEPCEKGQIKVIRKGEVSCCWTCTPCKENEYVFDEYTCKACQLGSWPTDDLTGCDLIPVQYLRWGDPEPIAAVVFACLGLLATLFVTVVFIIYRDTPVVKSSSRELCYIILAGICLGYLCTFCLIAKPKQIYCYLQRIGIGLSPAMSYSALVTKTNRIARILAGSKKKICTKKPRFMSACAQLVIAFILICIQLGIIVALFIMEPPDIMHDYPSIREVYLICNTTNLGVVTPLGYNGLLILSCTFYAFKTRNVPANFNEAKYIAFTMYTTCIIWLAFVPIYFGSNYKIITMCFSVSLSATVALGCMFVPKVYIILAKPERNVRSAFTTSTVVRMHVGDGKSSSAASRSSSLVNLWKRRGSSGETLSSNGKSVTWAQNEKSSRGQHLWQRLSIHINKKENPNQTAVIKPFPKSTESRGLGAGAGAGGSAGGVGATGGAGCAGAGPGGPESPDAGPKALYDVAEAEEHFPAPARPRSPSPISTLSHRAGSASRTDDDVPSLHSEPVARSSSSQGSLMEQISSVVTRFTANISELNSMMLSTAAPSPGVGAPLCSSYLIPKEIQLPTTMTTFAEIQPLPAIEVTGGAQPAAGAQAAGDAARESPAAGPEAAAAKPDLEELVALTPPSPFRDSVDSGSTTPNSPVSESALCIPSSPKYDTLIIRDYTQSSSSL

| pEC50 | EC50 (read-out: EC50) [µM] | Emax (%) | Emax [%] | EC50 (read-out: pEC50 (converted)) [µM] | Structure (SMILES) |
| --- | --- | --- | --- | --- | --- |
| 6.16 | 0.692 | 58 |  |  | O=C1c2cc(COc3ccccc3)nn2CC(CF)N1c1ccc(F)cc1 (centres unmarked) [Example 269] |
|  | > 10 |  | 39 |  | COC[C@@H]1Cn2nc(COc3ccccc3)cc2C(=O)N1c1ccc(F)cc1 [Example 270] |
| 5.59 | 2.57 | 65 |  |  | O=C1c2cc(COc3ccccc3)nn2CCN1c1cccc(C2CCOCC2)n1 [Example 274] |
| <4.52 | > 30.2 | 36 |  |  | O=C1c2cc(COc3ccccc3)nn2CCN1c1cccc(C2CCNCC2)n1 [Example 275] |
| 5.90 | 1.26 | 68 |  |  | CN(C)c1ccnc(N2CCn3nc(COc4ccccc4)cc3C2=O)n1 [Example 276] |
| 6.03 | 0.933 | 63 |  |  | CNc1ccnc(N2CCn3nc(COc4ccccc4)cc3C2=O)n1 [Example 277] |
|  | 0.275 |  | 56 |  | CNc1cccc(N2CCn3nc(COc4ccccc4)cc3C2=O)n1 [Example 278] |
| 6.58 | 0.263 | 68 |  |  | O=C1c2cc(COc3ccccc3)nn2CCN1c1cccc(N2CCCC2)n1 [Example 281] |
| 7.39 | 0.041 | 77 |  |  | CN(C)c1ccc(F)c(N2CCn3nc(COc4ccccc4)cc3C2=O)n1 [Example 283] |
| 5.55 | 2.82 | 53 |  |  | CN(C)c1ccc(N2CCn3nc(COc4ccccc4)cc3C2=O)nn1 [Example 284] |
| 6.13 | 0.741 | 68 |  |  | Nc1cccc(N2CCn3nc(COc4ccccc4)cc3C2=O)n1 [Example 285] |
| 6.40 | 0.398 | 69 |  |  | CN(C)c1nccnc1N1CCn2nc(COc3ccccc3)cc2C1=O [Example 288] |
|  | 1.2 |  | 65 |  | CN(C)c1cccnc1N1CCn2nc(COc3ccccc3)cc2C1=O [Example 289] |
| 7.33 | 0.047 | 56 |  |  | Cc1cc(N(C)C)nc(N2CCn3nc(COc4ccccc4)cc3C2=O)c1 [Example 290] |
| 7.47 | 0.034 | 66 |  |  | Cc1ccc(N2CCn3nc(COc4ccccc4)cc3C2=O)nc1N(C)C [Example 292] |
| 7.56 | 0.028 | 69 |  |  | COc1nc(N2CCn3nc(COc4ccccc4)cc3C2=O)ncc1Cl [Example 295] |
|  | 0.62 |  | 50 |  | COc1cc(N2CCn3nc(COc4ccccc4)cc3C2=O)nnc1Cl [Example 296] |
| 6.58 | 0.26 | 73 |  |  | COc1ncc(C)cc1N1CCn2nc(COc3ccccc3)cc2C1=O [Example 298] |
| 7.02 | 0.096 | 58 |  |  | COc1ccc(N2CCn3nc(COc4ccccc4)cc3C2=O)nc1OC [Example 301] |
| 6.72 | 0.19 | 77 |  |  | COCc1cc(F)ccc1N1CCn2nc(COc3ccccc3)cc2C1=O [Example 304] |
| 7.40 | 0.04 | 71 |  |  | CN(C)c1nc(N2CCn3nc(COc4ccccc4)cc3C2=O)ccc1F [Example 305] |
| <4.52 | > 30.2 | 28 |  |  | CNc1cccc(OCc2cc3n(n2)CCN(c2ccc(F)cc2)C3=O)n1 [Example 311] |
| 6.75 | 0.178 | 74 |  |  | CN(C)c1cccc(N2CCn3nc(COc4ccccn4)cc3C2=O)n1 [Example 313] |
| 6.69 | 0.204 | 70 |  |  | CN(C)c1ccc(F)c(N2CCn3nc(COc4ccccn4)cc3C2=O)n1 [Example 314] |

| pEC50 | EC50 (read-out: EC50) [µM] | Emax (%) | Emax [%] | EC50 (read-out: pEC50 (converted)) [µM] | Structure (SMILES) |
| --- | --- | --- | --- | --- | --- |
| 7.38 | 0.042 | 66 |  |  | CN(C)c1cccc(N2CCn3nc(COc4ccc(F)cc4)cc3C2=O)n1 [Example 317] |
| <5.00 | > 10 | 61 |  |  | Cn1cc(N2CCn3nc(COc4ccccc4)cc3C2=O)cn1 [Example 320] |
| <5.00 | > 10 | 44 |  |  | Cc1[nH]ncc1N1CCn2nc(COc3ccccc3)cc2C1=O [Example 322] |
| 7.24 | 0.058 | 71 |  |  | O=C1c2cc(COc3ccccc3)nn2CCN1c1nc2ccccc2o1 [Example 324] |
| 6.59 | 0.26 | 66 |  |  | COc1cc(N2CCn3nc(COc4ccccc4)cc3C2=O)ncn1 [Example 351] |
| <5.00 | > 10 | 55 |  |  | Cn1cncc1N1CCn2nc(COc3ccccc3)cc2C1=O [Example 352] |
|  | 0.42 |  | 64 |  | O=C1c2cc(COc3ccccc3)nn2CCN1c1cccc(=O)[nH]1 [Example 359] |
|  | 0.19 |  | 66 |  | O=C1c2cc(COc3ccccc3)nn2CCN1c1ccc2cccnc2c1 [Example 360] |
| 7.14 | 0.072 | 66 |  |  | O=C1c2cc(COc3ccccc3)nn2CCN1c1ccc2scnc2c1 [Example 361] |
|  | 0.054 |  | 71 |  | O=C1c2cc(COc3ccccc3)nn2CCN1c1cnc2ccccc2c1 [Example 362] |
|  | 1.3 |  | 65 |  | O=C1c2cc(COc3ccccc3)nn2CCN1c1ccc2ncncc2c1 [Example 363] |
| 7.34 | 0.046 | 75 |  |  | O=C1c2cc(COc3ccccc3)nn2CCN1c1ccc2nccc(Cl)c2c1 [Example 364] |
| 7.40 | 0.04 | 73 |  |  | O=C1c2cc(COc3ccccc3)nn2CCN1c1cccc(Cl)n1 [Example 365] |
| 6.07 | 0.85 | 62 |  |  | Cn1cc2ccc(N3CCn4nc(COc5ccccc5)cc4C3=O)cc2n1 [Example 366] |
| 7.06 | 0.088 | 60 |  |  | Cc1nc2cc(N3CCn4nc(COc5ccccc5)cc4C3=O)ccc2s1 [Example 367] |
|  |  |  | 69 | 0.0129 | O=C1c2cc(COc3ccccc3)nn2CCN1c1ccc(F)c2ccccc12 [Example 368] |
| 6.64 | 0.23 | 68 |  |  | Cc1ccc2ccc(N3CCn4nc(COc5ccccc5)cc4C3=O)cc2n1 [Example 369] |
|  | 1.1 |  | 68 |  | O=C1c2cc(COc3ccccc3)nn2CCN1c1cnc2cccnn12 [Example 370] |
| 7.49 | 0.032 | 68 |  |  | O=C1c2cc(COc3ccccc3)nn2CCN1c1ccc2nsnc2c1 [Example 371] |
|  | 0.13 |  | 67 |  | O=C1c2cc(COc3ccccc3)nn2CCN1c1cc(F)cc2cccnc12 [Example 372] |
|  | > 10 |  | 55 |  | O=C1c2cc(COc3ccccc3)nn2CCN1c1ccc2nccnc2n1 [Example 373] |
|  | 3.4 |  | 72 |  | O=C1c2cc(COc3ccccc3)nn2CCN1c1cnc2cnccn12 [Example 374] |
| 7.14 | 0.072 | 70 |  |  | O=C1c2cc(COc3ccccc3)nn2CCN1c1ccc2nonc2c1 [Example 375] |
